According to patent publication US20120093917A1, “METNASE AND INTNASE INHIBITORS AND THEIR USE IN TREATING CANCER” (priority 2009, published 2012):

Key:
Format in all cases: cell-based
[1] = test system: cancer cells; assay: Summary statements: cytotoxicity for cancer cells alone and with chemotherapy; settings: summary statement referring to figures
Protocol: (§1) The human Pancreatic cancer cell line BXPC3 was plated (4000 cells per plate with a ˜10% plating efficiency) in 10 cm dishes, using 10 ml of RPMI media (always with 10% FBS) per plate, and placed in a […] incubator (5% CO2) for 24 hrs. After 24 hrs, each plate was treated with one or a combination of the following agents: DMSO (0.2% in solution), 0.3 μg/ml of gemcitabine (dissolved in 1×PBS), and/or 2 μM of each Metnase/Intnase inhibitor (dissolved in DMSO). When the DMSO, gemcitabine, and/or inhibitors were added, the plates were swirled several times to assure mixing. After the agents were added to the RPMI, the plates were put back into the incubators for 18 hrs. Following 18 hrs treatment, the media was removed and the cells were washed twice with 1×PBS. Ten ml of fresh RPMI with 10% FBS was added and the cells were placed back into the incubator for 14 days. After the incubation period that will allow surviving cells to form colonies, the media was discarded and surviving colonies were stained with methylene blue. Colonies, a reflection of a single surviving cell that expanded, were counted to measure survival. All experiments were run in triplicate. Experiments were normalized to either DMSO (black asterices) or gemcitabine (red asterices).
(§2) The human colon cancer cell line SW48 was plated (1000 cells per plate with a ˜20% plating efficiency) in 10 cm dishes, using 10 ml of DMEM media (always with 10% FBS) per plate, and placed in a […] incubator (5% CO2) for 24 hrs. After 24 hr, each plate was treated with one or a combination of the following agents: DMSO (0.2% in solution), 3 μM 5-fluorouracil (5FU, dissolved in 1×PBS), and/or 2 μM of each Metnase/intnase inhibitor (dissolved in DMSO). When the DMSO, 5FU, and/or inhibitors were added, the plates were swirled several times to assure mixing. After agents were added to the DMEM, the plates were put back into the incubators for 18 hr. Following 18 hr treatment, the media was removed and the cells were washed twice with 1×PBS. Ten milliliters of fresh DMEM was added and the cells were placed back into the incubator for 7-14 days. After the incubation period that will allow surviving cells to grow and form colonies, media was discarded and surviving colonies were stained with methylene blue. Colonies, a reflection of a single surviving cell that expanded, were counted to measure survival. All experiments were run in triplicate. Experiments were normalized to either DMSO (black asterices) or 5FU (red asterices).
(§3) The human myeloid cell line KG-1 was grown in RPMI1640 with 10% FBS. The small cell lung cancer cell line CRL5898 was grown in HITES medium (Dulbecco's medium: Ham's F12, 50:50 mix, Insulin 0.005 mg/ml Transferrin 0.01 mg/ml Sodium selenite 30 nM Hydrocortisone 10 nM beta-estradiol 10 nM HEPES 10 mM L-glutamine 2 mM (in addition to that in the base medium)). Both cell lines were seeded at 10,000 cells/ml in the appropriate medium in 6 well plates. The Chem Div compounds were resuspended as 5 mM stock solutions in DMSO. The Chem Div compounds were added alone at 2 uM and 5 uM or in combination with VP-16 (also called etoposide) at 0.05 uM. DMSO was added to the control wells. Cells were plated and treated in triplicate and counted daily for 4 days.

[2] = test system: human Pancreatic cancer cell line BXPC3; assay: Colony formation assay, pancreatic cancer cell line BXPC3; settings: for BxPC3 Pancreatic activity: summary table / FIG. 34; for potentiation of gemcitabine (surviving colonies) / activity on their own against the pancreatic cancer cells (surviving colonies): BXPC3, FIG. 16; for potentiation of gemcitabine (surviving colonies): 2 μM inhibitor + 0.3 μg/ml gemcitabine, 18 hrs, normalized to gemcitabine; for activity on their own against the pancreatic cancer cells (surviving colonies): 2 μM inhibitor, 18 hrs treatment, colonies after 14 days, normalized to DMSO
Protocol: as §1

[3] = test system: human myeloid cell line KG-1; assay: Leukemia cell line KG-1 growth curve, alone or with VP-16; settings: for effect of compound alone on KG-1 growth, high dose: high (higher) dose of compound (added at 2 uM and 5 uM); for effect of compound alone on KG-1 growth, high dose / potentiation of low dose VP-16 on KG-1 growth, high dose of compound / effect of compound alone on KG-1 growth, lower/low dose / potentiation of low dose VP-16 on KG-1 growth, lower/low dose of compound: counted daily for 4 days; for potentiation of low dose VP-16 on KG-1 growth, high dose of compound: high (higher) dose of compound + VP-16 0.05 uM; for effect of compound alone on KG-1 growth, lower/low dose: lower (low) dose of compound (added at 2 uM and 5 uM); for potentiation of low dose VP-16 on KG-1 growth, lower/low dose of compound: lower (low) dose of compound + VP-16 0.05 uM; for KG-1 Leukemia potency / KG-1 Leukemia cooperativity with VP-16: summary table / FIG. 34
Protocol: as §3

[4] = test system: small cell lung cancer cell line CRL5898; assay: Small cell lung cancer cell line CRL5898 growth, alone or with VP-16; settings: for CLR5898 Small Cell Lung Cancer cooperativity with VP-16 / CLR5898 Small Cell Lung Cancer potency: summary table / FIG. 34
Protocol: as §3

[5] = test system: human colon cancer cell line SW48; assay: Colony formation assay, colon cancer cell line SW48; settings: FIG. 17; for activity on their own against the colon cancer cells (surviving colonies): 2 μM inhibitor, 18 hr treatment, colonies after 7-14 days, normalized to DMSO
Protocol: as §2

| SMILES | cytotoxicity for cancer cells with chemotherapy agents (potentiation) [1] | cytotoxicity for cancer cells, compound alone [1] | BxPC3 Pancreatic activity [2] | effect of compound alone on KG-1 growth, high dose [3] | potentiation of low dose VP-16 on KG-1 growth, high dose of compound [3] | effect of compound alone on KG-1 growth, lower/low dose [3] | potentiation of low dose VP-16 on KG-1 growth, lower/low dose of compound [3] | KG-1 Leukemia potency [3] | CLR5898 Small Cell Lung Cancer cooperativity with VP-16 [4] | CLR5898 Small Cell Lung Cancer potency [4] | KG-1 Leukemia cooperativity with VP-16 [3] | potentiation of gemcitabine (surviving colonies) [2] | activity on their own against the pancreatic cancer cells (surviving colonies) [2] | potentiation of 5FU (surviving colonies) ([5]; 2 μM inhibitor + 3 μM 5-fluorouracil, 18 hr, normalized to 5FU) | activity on their own against the colon cancer cells (surviving colonies) [5] | potentiation of low dose VP-16 on CRL5898 cell growth ([4]; FIG. 33) | effect of compound alone on CRL5898 cell growth ([4]; FIG. 33, compared with low dose VP-16) |
| --- | --- | --- | --- | --- | --- | --- | --- | --- | --- | --- | --- | --- | --- | --- | --- | --- | --- |
| CCn1cc(C(C)=O)c(=O)c2cc(F)c(N3CCN(C(=O)c4ccc(Cl)cc4)CC3)cc21 [5076-4170] | increased the cytotoxicity of chemotherapy when added | cytotxoic for cancer cells alone | inactive | slowed the growth of the leukemia cell line KG-1 and caused cell death with prolonged treatment | some potentiation on the anti-proliferative effect of low dose VP-16 | slowed the growth of the leukemia cell line KG-1 and caused cell death with prolonged treatment | some potentiation on the anti-proliferative effect of low dose VP-16 | High potency, probably below 1 uM. |  |  |  |  |  |  |  |  |  |
| CCn1cc(C(=O)O)c(=O)c2cc(F)c(N3CCN(C(=O)c4ccc(OC(C)=O)cc4)CC3)cc21 [5082-2438] | increased the cytotoxicity of chemotherapy when added | cytotxoic for cancer cells alone | weak | decreased KG-1 leukemia cell growth, similar to low dose VP-16 alone | potentiated the anti-proliferative effect of low dose VP-16 and prolonged treatment resulted in cell death | decreased KG-1 leukemia cell growth, similar to low dose VP-16 alone | potentiated the effect of low dose VP-16 and prolonged treatment resulted in cell death | Potency in uM | No or very | Potency in uM | Cooperativity with VP-16 |  |  |  |  |  |  |
| CC(C)n1cc(C(=O)O)c(=O)c2ccccc21 [5483-0023] | increased the cytotoxicity of chemotherapy when added | cytotxoic for cancer cells alone | Active | decreased KG-1 leukemia cell growth especially with longer treatment | potentiated the anti-proliferative effect of low dose VP-16 | decreased KG-1 leukemia cell growth, similar to low dose VP-16 | potentiated the anti-proliferative effect of low dose VP-16 | Potency in uM | No or very | Potency in uM | Cooperativity with VP-16 | potentiate gemcitabine | activity on their own | potentiate 5FU | activity on their own |  |  |
| Cc1ccc(NCC(=O)Nc2cccc(C(=O)O)c2O)cc1 [8017-3379] |  | cytotxoic for cancer cells alone | inactive | inhibited KG-1 leukemia cell growth even more than low dose VP-16 alone | no potentiation on the effect of low dose VP-16 | inhibited KG-1 leukemia cell growth even more than low dose VP-16 alone | no potentiation on the effect of low dose VP-16 | Potency in uM | No or very | Potency in uM | No or very weak |  |  |  |  | some potentiation of the anti-proliferative effect of low dose VP-16 | inhibited cell growth of the small cell lung cancer cell line CRL5898, the same as low dose VP-16 |
| O=C(O)c1ccc(N2C(=O)Nc3ccccc3N2O)cc1O [D0045-0007] | increased the cytotoxicity of chemotherapy when added | cytotxoic for cancer cells alone |  |  |  | decreased KG-1 leukemia cell growth compared to control | potentiated the anti-proliferative effect of low dose VP-16 |  |  |  |  | potentiate gemcitabine | activity on their own |  | activity on their own |  |  |
| COc1ccc(Cn2c(C)c(CNC(C)c3ccccc3)c(C(=O)O)c2C)cc1 (stereo not drawn) [G396-1171] | increased the cytotoxicity of chemotherapy when added | cytotxoic for cancer cells alone | inactive | decreasedKG-1 leukemia cell growth, similar to low dose VP-16 alone | potentiated the anti-proliferative effect of low dose VP-16 | decreased KG-1 leukemia cell growth, similar to low dose VP-16 alone | potentiated the anti-proliferative effect of low dose VP-16 | Potency in uM | No | Potency in uM | Cooperativity with VP-16 |  |  |  |  |  |  |
| O=C(O)c1cc(=O)c2ccccc2o1 [R092-0025] | increased the cytotoxicity of chemotherapy when added | cytotxoic for cancer cells alone |  |  |  |  |  |  |  |  |  | potentiate gemcitabine | activity on their own |  | activity on their own |  |  |
